This note sets out measurements from US12122816B2, “Long acting peptide tyrosine tyrosine (PYY) analogs and methods of use” (Intarcia Therapeutics, Inc., priority 2020, dated 2024).

Holding throughout (assay): NPY receptor functional assay (cAMP, HEK-CNG cells, ACTOne membrane potential dye)
What all share (type): cell-based

The target of one experiment is T1, human Y1 receptor (Homo sapiens, UniProt P25929).
T1 sequence (P25929 1-384): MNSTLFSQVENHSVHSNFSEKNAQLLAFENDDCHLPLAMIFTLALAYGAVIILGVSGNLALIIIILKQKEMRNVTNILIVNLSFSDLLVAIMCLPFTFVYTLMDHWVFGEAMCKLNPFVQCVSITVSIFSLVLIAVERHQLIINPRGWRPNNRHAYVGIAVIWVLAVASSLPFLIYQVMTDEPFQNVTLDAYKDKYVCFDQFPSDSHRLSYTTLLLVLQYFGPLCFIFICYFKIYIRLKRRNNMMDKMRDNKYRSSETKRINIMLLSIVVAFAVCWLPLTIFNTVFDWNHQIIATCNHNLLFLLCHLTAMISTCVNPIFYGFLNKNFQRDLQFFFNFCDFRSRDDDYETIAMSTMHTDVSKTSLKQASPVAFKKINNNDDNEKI
The source says: The NPY family of G-protein coupled receptors include Y1, Y2, Y4, and Y5 in humans and rats. […] Following agonist binding, the receptor-G protein complex activates a downstream intracellular signaling cascade which leads to inhibition of adenylate cyclase and a reduction in intracellular cAMP levels.
HEK-CNG cells stably expressing the human or rat Y1, Y2, Y4 or Y5 receptors (Codex Biosolutions) were used to characterize the functional potency of peptide agonists using the ActOne™ membrane potential dye kit (Codex Biosolutions). In addition to each NPY receptor, each cell line encodes a proprietary exogenous Cyclic Nucleotide-Gated (CNG) channel (Codex Biosolutions). The channel is activated by elevated intracellular levels of cAMP, resulting in ion flux and cell membrane depolarization which can be detected with a calcium sensitive dye or fluorescent membrane potential (MP) dye. Cells were carried in growth media containing 90% DMEM, 10% FBS, 250 mcg/mL G418 and 1 mcg/mL puromycin for no more than 15 passages.
Prior to testing, cells were counted and dispensed at 14,000 cells per well (Y1, Y4 and Y5) or 28,000 cells per well (Y2) into black 384 well Poly-D-Lysine plates at 20 mcL per well. Covered plates were then incubated at room temperature for 30 minutes followed by an overnight incubation at 37° C. in 5% C02. The following day, media was removed and wells were washed once with 40 mcL Dulbecco's phosphate buffered saline. […] Ten microliters of experimental peptide or peptide standard was added in triplicate to wells and incubated for 50 minutes at room temperature in the dark. Following this incubation step, plates were read again as before (final read).
NPY receptor activation, leading to a reduction in intracellular cAMP levels, is detected as a decrease in isoproteranol induced fluorescent signal. Peptide standard and experimental values were initially transformed in excel using the formula: final read/initial read. […] Normalized data was analyzed from triplicate tests and used to estimate the EC50 for each test peptide on each receptor. Data was fit in GraphPad Prism software (v8.2.1) using a 3-parameter logistic curve model: Y=Bottom+(Top−Bottom)/(1+10^((LogEC50−X))). EC50 values were converted to pEC50 values using the formula: pEC50=−Log(EC50).

Another experiment concerns the target T2, human Y5 receptor (Homo sapiens, UniProt Q15761).
T2 sequence (Q15761 1-445): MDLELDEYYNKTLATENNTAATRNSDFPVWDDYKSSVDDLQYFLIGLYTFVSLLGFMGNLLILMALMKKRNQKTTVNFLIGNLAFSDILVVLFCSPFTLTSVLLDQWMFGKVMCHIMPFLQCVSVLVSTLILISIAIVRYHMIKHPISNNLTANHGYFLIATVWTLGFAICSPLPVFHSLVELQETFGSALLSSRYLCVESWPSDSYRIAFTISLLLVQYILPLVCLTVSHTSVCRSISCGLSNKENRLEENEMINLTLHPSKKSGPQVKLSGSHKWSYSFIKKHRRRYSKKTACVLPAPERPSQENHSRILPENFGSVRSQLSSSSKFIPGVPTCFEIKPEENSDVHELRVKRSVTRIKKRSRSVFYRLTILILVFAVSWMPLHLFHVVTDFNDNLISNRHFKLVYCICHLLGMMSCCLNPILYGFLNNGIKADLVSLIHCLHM
Particulars: NPY5R pEC50, HEK-CNG cells; standard NPY; species (human or rat) not given. Summed up:
(§1)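 HEK-CNG cells stably expressing each human receptor; peptides added in triplicate for 50 minutes at room temperature, with agonism read as decreased isoproterenol-induced membrane potential dye signal (final/initial read).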

The next experiment deals with T3, human Y2 receptor (Homo sapiens, UniProt P49146).
T3 sequence (P49146 1-381): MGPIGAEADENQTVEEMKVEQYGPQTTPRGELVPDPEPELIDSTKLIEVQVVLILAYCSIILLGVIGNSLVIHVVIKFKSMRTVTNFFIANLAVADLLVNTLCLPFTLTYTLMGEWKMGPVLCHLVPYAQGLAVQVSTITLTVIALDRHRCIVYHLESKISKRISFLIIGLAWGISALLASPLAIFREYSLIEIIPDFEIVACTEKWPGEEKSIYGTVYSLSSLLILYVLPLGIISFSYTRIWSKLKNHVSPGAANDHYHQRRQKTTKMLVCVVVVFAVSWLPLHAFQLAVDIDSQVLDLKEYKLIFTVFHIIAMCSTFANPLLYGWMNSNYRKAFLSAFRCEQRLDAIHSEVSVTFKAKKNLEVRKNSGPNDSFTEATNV
To be noted: NPY2R pEC50, HEK-CNG cells; standard PYY(3-36); species (human or rat) not given. In outline: as §1

On to `CC(C)C[C@H](NC(=O)[C@H](CC(=O)O)NC(=O)[C@H](CCCCN)NC(=O)[C@H](Cc1ccc(O)cc1)NC(=O)[C@H](Cc1ccc(O)cc1)NC(=O)[C@H](CCCNC(=N)N)NC(=O)[C@H](CC(N)=O)NC(=O)[C@H](Cc1c[nH]c2ccccc12)NC(=O)[C@H](CCC(=O)O)NC(=O)[C@H](CCC(=O)O)NC(=O)[C@@H]1CCCN1C(=O)[C@H](CO)NC(=O)[C@H](C)NC(=O)[C@H](CC(=O)O)NC(=O)[C@H](CCCCNC(=O)CC[C@H](NC(=O)CC[C@H](NC(=O)CCCCCCCCCCCCCCCCCCC(=O)O)C(=O)O)C(=O)O)NC(=O)CNC(=O)[C@@H]1CCCN1C(=O)[C@H](CCCCN)NC(=O)[C@H](CCC(=O)O)NC(=O)[C@@H]1CCCN1C(=O)[C@H](CCCCN)NC(=O)[C@@H]1CCCN1)C(=O)N[C@@H](CCCNC(=N)N)C(=O)N[C@@H](Cc1c[nH]cn1)C(=O)N[C@@H](Cc1ccc(O)cc1)C(=O)N[C@@H](CC(C)C)C(=O)N[C@@H](CC(N)=O)C(=O)N[C@@H](Cc1c[nH]c2ccccc12)C(=O)N[C@@H](CC(C)C)C(=O)N[C@H](C(=O)N[C@@H](CCCNC(=N)N)C(=O)N[C@@H](CCC(N)=O)C(=O)N[C@@H](CCCNC(=N)N)C(=O)N[C@@H](Cc1ccccc1)C(N)=O)[C@@H](C)O` [Compound A74], for which the EC50 on human Y1 receptor was 501 pM; on human Y5 receptor, 1000 pM; on human Y2 receptor it was 50.1 pM.
The matching figures for `CC(C)C[C@H](NC(=O)[C@H](Cc1ccc(O)cc1)NC(=O)[C@H](Cc1c[nH]cn1)NC(=O)[C@H](CCCNC(=N)N)NC(=O)[C@H](CC(C)C)NC(=O)[C@H](CC(=O)O)NC(=O)[C@@H](CCCCNC(=O)CC[C@H](NC(=O)COCCOCCNC(=O)COCCOCCNC(=O)CC[C@H](NC(=O)CCCCCCCCCCCCCCCCCCC(=O)O)C(=O)O)C(=O)O)NC(=O)[C@H](Cc1ccc(O)cc1)NC(=O)[C@H](Cc1ccc(O)cc1)NC(=O)[C@H](CCCNC(=N)N)NC(=O)[C@H](CC(N)=O)NC(=O)[C@H](Cc1c[nH]c2ccccc12)NC(=O)[C@H](CCC(=O)O)NC(=O)[C@H](CCC(=O)O)NC(=O)[C@@H]1CCCN1C(=O)[C@H](CO)NC(=O)[C@H](C)NC(=O)[C@H](CC(=O)O)NC(=O)[C@H](CCCCN)NC(=O)CNC(=O)[C@@H]1CCCN1C(=O)[C@H](C)NC(=O)[C@H](CCC(=O)O)NC(=O)[C@@H]1CCCN1C(=O)[C@H](CCCCN)NC(=O)[C@@H]1CCCN1)C(=O)N[C@@H](CC(N)=O)C(=O)N[C@@H](Cc1c[nH]c2ccccc12)C(=O)N[C@@H](CC(C)C)C(=O)N[C@H](C(=O)N[C@@H](CCCNC(=N)N)C(=O)N[C@@H](CCC(N)=O)C(=O)N[C@@H](CCCNC(=N)N)C(=O)N[C@@H](Cc1ccccc1)C(N)=O)[C@@H](C)O` [Compound A65]: 10000 pM, 2510 pM and 63.1 pM.
